Results reported in patent US20070213283A1, “Macrolides substituted at the 4"-position” (priority 2003, published 2007).

Assays:
Assay in all cases: MIC, standard broth dilution method in microtitre
Format in all cases: cell-based
[1] = system: erythromycin resistant strains of Streptococcus pyogenes
Description: (§1) Using a standard broth dilution method in microtitre, compounds were tested for antibacterial activity. The compounds in the above examples gave minimum inhibitory concentrations (MICs) less than 1 microgram per millilitre against erythromycin-sensitive and erythromycin-resistant strains of Streptococcus pneumoniae and Streptococcus pyogenes.

[2] = system: erythromycin resistant strains of Streptococcus pneumoniae
Description: as §1

[3] = system: E. faecalis ATCC 29212; conditions: Enterococcus faecalis, ATCC29212
Description: as §1
(§2) In addition, the MIC (μg/mL) of test compounds against various organisms was determined including:
(§3) S. aureus Smith ATCC 13709, S. pneumoniae SP030, S. pyogenes 3565, E. faecalis ATCC 29212, H. influenzae ATCC 49247, M. catarrhalis ATCC 23246.

[4] = system: S. aureus Smith ATCC 13709; conditions: Staphylococcus aureus, ATCC13709
Description: as §1, §2, §3

[5] = system: S. pyogenes 3565; conditions: Streptococcus pyogenes
Description: as §1, §2, §3

[6] = system: H. influenzae ATCC 49247; conditions: Haemophilus influenzae, ATCC49247; H. influenzae ATCC 49247; broth dilution in microtitre; read-out: MIC
Description: as §1, §2, §3

[7] = system: M. catarrhalis ATCC 23246; conditions: Moraxella catarrhalis, ATCC23246
Description: as §1, §2, §3

[8] = system: S. pneumoniae SP030; conditions: Streptococcus pneumoniae
Description: as §1, §2, §3

With `CC[C@H]1OC(=O)[C@H](C)[C@@H](O[C@H]2C[C@@](C)(OC)[C@@H](OC(=O)CCOCCNc3cc4c(=O)c(C(=O)O)cn(C5CC5)c4cc3Cl)[C@H](C)O2)[C@H](C)[C@@H](O[C@@H]2O[C@H](C)C[C@H](N(C)C)[C@H]2O)[C@](C)(O)C[C@@H](C)CN(C)[C@H](C)[C@@H](OC)[C@]1(C)O` [Example 23, 4″-O-{3-[2-(3-Carboxy-7-chloro-1-cyclopropyl-4-oxo-1,4-dihydro-6-quinolinylamino)ethoxy]propionyl}-11-O-methyl-azithromycin] the MIC [1] was ≤ 0.25 µg/mL, the MIC [2] was ≤ 0.25 µg/mL and the MIC [3] was ≤ 1 µg/mL. The MIC [4] was ≤ 1 µg/mL, the MIC [5] was ≤ 1 µg/mL and the MIC [6] was ≤ 2 µg/mL. For the same compound, the MIC [7] was ≤ 2 µg/mL and the MIC [8] was ≤ 1 µg/mL.
